Reference: article PMC12135518 (Antimicrobial Agents and Chemotherapy, 2025)
Like-named read-outs stand apart in the source and are kept apart here.

How the values were obtained:
[1] = at equivalent dosages, cited from earlier work
Description: Different pharmacokinetic characteristics are anticipated in renal transplant patients depending on the unique physiologic status of these patients ([18], [19]). Moreover, in the early postoperative phase following kidney transplantation, patients undergo gradual recovery of renal function, accompanied by increased urine output and a rapid decline in serum creatinine levels, typically returning to normal within 2–4 weeks ([20][–][22]). […] In addition, renal transplant patients are mor ...

plasma albumin = conditions: ref not given; cited from earlier work
Description: After that, a suitable maintaining dose should be employed to sustain the target concentration.

[2] = cited from earlier work
[3] = Population pharmacokinetic modeling of teicoplanin plasma concentrations (two-compartment model, Phoenix NLME, FOCE-ELS); assay type: in vivo, renal transplant patients
Method: This prospective study was conducted at the kidney transplantation department in the Second Xiangya Hospital of Central South University (Changsha, China). […] The exclusion criteria were as follows: (i) lack any of the demographic and laboratory data described below, (ii) unable to get the blood samples, and (iii) pregnancy. This study was approved by the Ethics Committee of the Second Xiangya Hospital, Central South University, and informed consent was obtained from all patients or legal representatives of the patients. The study employed a two-phase enrollment design to establish and validate the population PK model. Initial model development utilized patient data collected between January 2022 and December 2023. Following the establishment of the final population PK model, a distinct cohort of patients was prospectively recruited between November 2024 and March 2025 to conduct an external validation.
The supernatant was immediately stored at −80℃ until analysis.
Plasma samples (200 µL) were extracted by protein precipitation with MARG-1A (500 µL), after vortex oscillation for 1 minute, centrifugation at 14,500 r/min for 8 min, and 600 µL of the clear supernatant was transferred into autosampler vials for further analysis.
One-, two-, and three-compartment models with first-order elimination were evaluated as potential structural PK models based on changes in the objective function value (OFV, −2 × log-likelihood) and goodness-of-fit plots. The inter-individual variability of the PK parameters was evaluated using an exponential model. Residual variability was selected with additive, proportional, and combined error models:
The following patient covariates were tested for their influence on the PK parameters of teicoplanin: age, sex, body weight, ALT, AST, TBIL, DBIL, ALB, baseline, and real-time CrCL. The stepwise covariate modeling (SCM) approach was used to test the covariate model in this analysis. A reduction in OFVs of ≥3.84 was considered to be statistically significant (P < 0.05) for the inclusion of one covariate in the forward inclusion steps, and an increase in OFVs of ≥6.63 was considered to be statistically significant (P < 0.01) in the backward elimination steps.
The validity of the final model was assessed by visual inspection of goodness-of-fit (GoF) plots, including observed concentrations versus individual predictions (IPRED), observed concentrations versus population predictions (PRED), and conditional weighted residuals (CWRES) versus population predictions and time. Next, the accuracy and stability of the final model were evaluated using the bootstrap method. The medians and 95% confidence intervals of the PK parameter estimates were obtained from the 1,000 bootstrap runs. The model was considered stable if the typical population values for the PK parameters of the final model were within the 95% confidence interval of the bootstrap results, and the biases were less than 10% with no bias across zero.

MRSA = conditions: patients achieving AUC24h/MIC ≥900; cited from earlier work
[4] = renal transplant patients, 306 plasma samples from 79 patients

Row | Substance | incidence of neurological toxicity ([1]; other patients) | incidence of pigment toxicity ([1]; other patients) | incidence of neurological toxicity ([1]; renal transplant patients) | incidence of pigment toxicity ([1]; renal transplant patients) | plasma protein binding rate (plasma albumin) | distribution (volume) in previous models ([2]; mostly critically ill patients) | CL in critically ill patients ([2]; previously reported values, critically ill patients, no ref printed at the value) | CL, bootstrap estimate (median) ([3]; bootstrap method (n = 992)) | CLd, bootstrap estimate (median) ([3]; bootstrap method (n = 992)) | CrCLCL, bootstrap estimate (median) ([3]; bootstrap method (n = 992)) | Vc, bootstrap estimate (median) ([3]; bootstrap method (n = 992)) | Vp, bootstrap estimate (median) ([3]; bootstrap method (n = 992)) | distribution (volume) in the present model ([3]; renal transplant patients) | CLd, clearance between the central compartment and peripheral compartment (final model estimate) [3, 4] | Vc, volume distribution in the central compartment (final model estimate) [3, 4] | Vp, volume in the peripheral compartment (final model estimate) [3, 4] | CL, clearance in the central compartment (final model estimate, typical value) ([3]; renal transplant patients, iv 400 mg q12h x3 then 400 mg once daily, 1 h infusion, 306 plasma samples from 79 patients, 2LC-MS/MS, CL=0.711×(CrCL÷17)^0.198) | treatment success rate (MRSA)
1 | polymyxin B | 27% | 15% | 63.4% | 51.5% | – | – | – | – | – | – | – | – | – | – | – | – | – | –
2 | teicoplanin | – | – | – | – | about 90% | 60.5 to 121.1 L | 0.838 to 1.03 L/h | 0.714 L/h | 4.22 L/h | 0.196 | 11.3 L | 35 L | 46.6 L | 4.22 L/h | 11.3 L | 35.3 L | 0.711 L/h | 87%
